Data taken from US20240108598A1, “Danegaptide for Use in the Treatment or Prevention of a Kidney Disease” (CIANA THERAPEUTICS APS, priority 2021, published 2024).

How the values were obtained:
[1] = test system: HK2 cells; test: MTT assay (cell viability); assay type: cell-based, human; conditions: TGFβ1 10 ng/mL alone, 48 h
Protocol: (§1) HK2 cells were cultured in low glucose (5 mM) for 48 h, prior to being serum-starved overnight and subsequently treated with TGFβ1 (10 ng/mL)±danegaptide (50 nM-1 μM) for 48 h (FIG. 1A, n=3).
The 3-(4,5-Dimethylthiazol-2-yl)-2,5-diphenyltetrazolium bromide (MTT) assay was performed as known in the art to assess the cytotoxic effects of danegaptide on cell proliferation. HK2 cells were seeded in 96-well plates and cultured in low glucose DMEM/F12 (5 mM) for 48 h, prior to overnight serum-starvation, then subsequently stimulated for 48 h with TGFβ1 (10 ng/ml)±danegaptide (50-1000 nM). Colourmetric measurement of formazan production corresponds to the number of viable cells.

[2] = test system: HK2 cells; test: Lactate dehydrogenase (LDH) release assay; assay type: cell-based; conditions: TGFβ1 10 ng/mL alone, 48 h
Protocol: as §1
The release of lactate dehydrogenase (LDH) into media as a result of plasma membrane damage is commonly used to evaluate cell death or cytotoxicity. HK2 cells were seeded in 96-well plates and cultured in low glucose DMEM/F12 (5 mM) for 48 h, prior to overnight serum-starvation. Cells were then stimulated for 48 h with TGFβ1 (10 ng/ml)±danegaptide (50-1000 nM). The LDH-cytotoxicity assay kit II (Abcam) was used to quantify LDH according to the manufacturer's instructions.

[3] = test system: primary hPTECs; test: qPCR of cell cycle and reno-protective marker mRNA; assay type: cell-based, human; conditions: TGFβ1 10 ng/mL alone, 12 h
Protocol: Primary hPTECs were cultured in low (5 mM) glucose±TGFβ1 (10 ng/mL)±danegaptide (100 nM) for 12 h. […] Danegaptide (100 nM) negated the increase in p16, p21, cyclinD1 (▴▴▴P<0.001; mean±SEM, n=3) and partly reversed the TGFβ1-evoked change in Klotho.
To determine if danegaptide can negate hemichannel-mediated regulation of common cell cycle and reno-protective markers, hPTECs were incubated with TGFβ1 (10 ng/mL)±danegaptide (100 nM) for 12 h and expression of candidate gene mRNA assessed through qPCR analysis.
RNA was extracted using an RNeasy mini kit (QIAGEN) and reverse transcribed (Invitrogen). Real-time PCR (SYBR GreenER, Invitrogen) was performed using a StepOne Plus instrument (Applied Biosystems Inc, Foster City, CA). cDNA expression was obtained by comparing to a standard curve of serially-diluted cDNA. The following primers were used: p16 (forward: […], reverse: […]), p21 (forward: […], reverse: […]), cyclinD1 (forward: […], reverse: […]), Klotho (forward: […], reverse: […]). Melt curve analysis confirmed primer specificity and checked for potential contamination.

[4] = test system: primary hPTECs; test: Inflammation antibody array, cell lysates (Table 1); assay type: cell-based, human; conditions: hPTEC lysate; TGF-β1 10 ng/mL alone, 48 h
Excerpt: An inflammation antibody array was used to assess regulation of 31 candidate inflammatory proteins in cell lysates from hPTEC cells treated with TGFβ1±danegaptide. Results are representative of 3 separate experiments and presented as mean±SEM, n=3 with key significances indicated (*P<0.05, **P<0.01, ***P<0.001; one-way ANOVA and Tukey's post-test).
A proteome profiler array (Human Cytokine Array Kit from R&D Systems, Oxfordshire, UK) was used, to determine if danegaptide negates TGFβ1-induced changes in expression and secretion of key pro-inflammatory mediators. Primary hPTECs were cultured as described above and treated with TGFβ1 (10 ng/mL)±danegaptide (100 nM) for 48 h.

## TGFβ1: Recombinant hTGFβ1 (Sigma); pro-fibrotic cytokine used to stimulate the cells [reference compound]
[1]
  cell viability (MTT) as compared to control: 101.9±11.7%
[2]
  LDH release compared to control: 109.3±11.3%
[3]
  Klotho mRNA expression, of control: 43.3±3.8%
  cyclinD1 mRNA expression, of control: 253.2±7.7%
  p16 mRNA expression, of control: 358.8±21.1%
  p21 mRNA expression, of control: 221.8±12.9%
[4]
  Angiogenin in lysate (% compared to control): 237 ± 36^ %
  Cystatin C in lysate (% compared to control): 182 ± 17.5%
  DPPIV in lysate (% compared to control): 315 ± 6.8%
  ENA 78 in lysate (% compared to control): 207 ± 21.6%
  Endoglin in lysate (% compared to control): 145 ± 24.9%
  FGF7 in lysate (% compared to control): 139 ± 5.6%
  Flt 3 Ligand in lysate (% compared to control): 212 ± 13.3%
  G-CSF in lysate (% compared to control): 201 ± 24.6%
  GM-CSF in lysate (% compared to control): 221 ± 11.1%
  HGF in lysate (% compared to control): 153 ± 17.0%
  ICAM 1 in lysate (% compared to control): 190 ± 13.6%
  IFNg in lysate (% compared to control): 206 ± 15.4%
  IGFBP2 in lysate (% compared to control): 519 ± 99.4%
  IGFBP3 in lysate (% compared to control): 394 ± 94.5%
  IL1A in lysate (% compared to control): 127 ± 26.4%
  IL3 in lysate (% compared to control): 176 ± 3.4%
  IL8 in lysate (% compared to control): 236 ± 9.4%
  IL12 p70 in lysate (% compared to control): 177 ± 31.0%
  IL13 in lysate (% compared to control): 269 ± 3.9%
  Kallikrein 3 in lysate (% compared to control): 76 ± 12.0%
  LIF in lysate (% compared to control): 328 ± 70.4%
  MCP-1 in lysate (% compared to control): 134 ± 30.2%
  MMP9 in lysate (% compared to control): 24 ± 3.1%
  PDGF-AA/BB in lysate (% compared to control): 247 ± 53.4%
  RAGE in lysate (% compared to control): 109 ± 23.8%
  RANTES in lysate (% compared to control): 235 ± 13.5%
  Serpin E1 in lysate (% compared to control): 186 ± 40.2%
  TFF3 in lysate (% compared to control): 204 ± 25.8%
  TNF-α in lysate (% compared to control): 192 ± 14.7%
  Thrombospondin-1 in lysate (% compared to control): 128 ± 37.5%
  VEGF in lysate (% compared to control): 203 ± 25.9%
